Measurements from patent publication US9757317B2, “Cosmetic compositions and methods for inhibiting melanin synthesis” (The Procter & Gamble Company, priority 2014, dated 2017).
Structures can show the parent of a compound that is named as a salt.

Test system: B16-F1 mouse melanoma cells
Test: Melanin Synthesis Assay
Assay type: cell-based
Experimental: A B16-F1 mouse melanoma cell line may be employed as an assay to measure melanin synthesis. The B16-F1 cells may be obtained from American Tissue Culture Collection, Virginia, USA. The cell culture medium that may be used in the assay may comprise 500 mL of Dulbecco's Modified Eagle's Medium (DMEM), 50 mL Fetal Bovine Serum (FBS), and 5 mL of penicillin-streptomycin liquid. B16-F1 cells that are cultured in this medium and grown to greater than 90% confluency synthesize melanin. While not intending to be bound by any theory, it is hypothesized that melanin synthesis is stimulated by the culture medium and/or stress induced by growth to a high confluency. The DMEM and FBS can be obtained from American Tissue Culture Collection and the penicillin-streptomycin liquid can be obtained from Invitrogen, Inc., California, USA. Equipment used in the assay include a CO2 incubator, such as a Form a Series Model 3110 by Therma Scientific, Massachusetts, USA; a hemocytometer, such as a Bright Line model by Hauser Scientific, Pennsylvania, USA; and a UV-Visible Spectrum Plate Reader, such as a SpectraMax250 from Molecular Devices, California, USA. The assay steps may include:
Day 0—Cell Growth: Warm the cell culture medium to 37° C. and place 29 mL into a T-150 flask. Add approximately 1×10^6 of B16-F1 passage 1 mouse cells to the T-150 flask and incubate for 3 days at 37° C., 5% CO2, 90% relative humidity, until ˜80% confluency;
Day 3—Initiate a 96 Well Plate: At day 3, trypsinize the cells from the T-150 flask and determine the concentration of cells using a hemocytometer. Initiate a 96 well plate with 2,500 cells per well in 100 microliters of cell culture medium. Incubate the plate at 37° C., 5% CO2, 90% relative humidity for about 2 days until at least 20% to 40% confluency;
Day 5—Decant the cell culture medium from the plate and replace with fresh culture medium (100 uL per well). Add 1 microliter of [test compound] diluted in a [water or DSMO] solvent. Multiple dilution ratios may be tested in order to generate a dose response curve, wherein preferably three wells are treated with each dilution ratio. Controls comprise wells having the cell culture medium, B16-F1 cells, and the solvent (control #1); wells comprising the cell culture medium and the solvent (control #2); and optionally wells comprising the cell culture medium, solvent and [test compound] when necessary to control for the [test compound] background color (control #3);
Day 7—Measure Melanin Production: Cells should have a confluency greater than ˜90%. […] Add 100 microliters of a 0.75% sodium hydroxide solution to each well. Read the 96 well plate using the UV-Vis Plate Reader at 410 nm to optically measure the amount of melanin produced between wells that are treated with [test compound] and control wells that are not treated with a test compound. Wells in which melanin is produced typically appear brownish in color. Wells in which little melanin is produced typically appear clear to light purple in color. Percentage of melanin synthesis inhibition is calculated by the following equation: […]
Where OD410 is the Optical Density at 410 nm as measured by the UV-Vis Spectrum Plate Reader.
When Control #3 is used, the formula for percentage melanin synthesis inhibition is: […]
Using generally the assay outlined above, melanin synthesis in treated B16-F1 cells was inhibited as compared to control cells as shown in Table 1.

[1] = test material (0.002 to 0.5%) combined with Bis/HD/Nia
[2] = test material (0.002 to 0.5%) combined with Bis/UP/Nia

Compound | Average Melanin % Inhibition [1] [%] | Average Melanin % Inhibition [2] [%] | other results
CCCCCCCCCCCCCCCCCC(=O)OCC(O)CO (racemic) [1-Stearoyl rac-Glycerol, 1-Stearoyl-rac-glycerol] |  |  | Average Melanin % Inhibition (test material (0.002 to 0.5%) combined with Bis/HD/UP/Nia): 38%
CCCCCCCCCCC(O)CCCC (stereo not shown) [5-Pentadecanol] | 46 |  | 
CCCCC(CC)COC(=O)CCCCC(=O)OCC(CC)CCCC (stereo not shown) [Bis (2-ethylhexyl) Adipate, Bis (2-ethylhexyl) adipate] |  | 42 | 
CCCCC(CC)COC(=O)/C=C\C(=O)OCC(CC)CCCC (stereo not shown) [Bis (2-ethylhexyl) Maleate, Bis (2-ethylhexyl) maleate] | 32 | 45 | 
CCCCC(CC)COC(=O)CCCCCCCCC(=O)OCC(CC)CCCC (stereo not shown) [Bis (2-ethylhexyl) Sebacate, Bis (2-ethylhexyl) sebacate] | 79 | 88 | 
CCCCCCCCCCCCCCCC(=O)OCC [Ethyl Palmitate, Ethyl palmitate] | 82 | 84 | 
CC(C)=CCC[C@](C)(O)[C@@H]1CC=C(C)CC1 [Sample 1, bisabolol] |  |  | Average Melanin % Inhibition (Table 1, B16-F1 cells, 0.1% Bis, 0.00056% HD, 0.00011% UP, 0.00056% Nia where included): 2.2%
CCCCCCCCCCCCCCCCCCOCC(O)CO (stereo not shown) [Sample 8, batyl alcohol] |  |  | Average Melanin % Inhibition (Table 2, 0.03% Bat, 0.003% Bis, 0.0005% HD, 0.0001% UP, 0.0005% Nia where included): 7%
CCCCCCCCCCCCCCCCCCO [Stearyl Alcohol, Stearyl alcohol] | 60 | 73 | 
